Test results published in a melting point compilation (Tetko et al.; mined from patent text by program, amines drawn as free bases though some values may be those of a salt).

Row | Structure (SMILES) | melting point [°C]
1 | Cc1ccc(C(=O)/C=C/c2c(-c3ccc(F)cc3)nc3sccn23)cc1C | 210 to 213
2 | CCOC(=O)C1=C(C)NC(C)=C(C(=O)OCC)C1c1ccccc1/C=C/C#N | 172 to 173
3 | CC(C)c1ccc(-c2ccc(C3N=C(c4ccccc4Cl)CC3C#N)cc2)cc1 (stereo unspecified) | 127 to 128
4 | CC(C)(C)c1ccc(NC(=O)N2CCC3(CC2)CC(CCc2ccccc2)=NO3)cc1 | 153 to 154
5 | CC(C)n1nc(-c2c(-c3ccccc3)nn3cccc(OCCN(C)C)c23)ccc1=O | 137 to 138
6 | CC(Oc1cccc(OCc2ccc3ccc(Br)cc3n2)c1)C(=O)O (stereo unspecified) | 178
7 | COC(=O)C(C)c1nsc2ccc([N+](=O)[O-])cc12 (stereo unspecified) | 88 to 90
8 | COC1=CC2=C(CN1OC)C1=C(c3cc4c(cc3C1=O)OCO4)C(CCCC(C)O)C2=O (stereo unspecified) | 288 to 290
9 | COc1cccc(-c2nn(C(C)c3oc4ccccc4c(=O)c3-c3ccccc3)c3ncnc(N)c23)c1 (stereo unspecified) | 176 to 178
10 | CN1CCN(C(=O)COc2ccc(N)cc2)CC1 | 71 to 73
11 | C[C@@H]1Cc2ccsc2[C@H](C)N1CCNC(=O)c1cccs1 (relative stereo) | 111 to 113
12 | CCC(=O)NC1(c2ccccc2Cl)C(=O)N(Cc2ccc(C(=O)NC(C)(C)C)cc2OC)c2ccc(Cl)cc21 (stereo unspecified) | 249
13 | N#CCC1CCN(c2ccc(N3C[C@H](CO)OC3=O)cc2)CC1 | 110 to 112
14 | COCNC(=O)NC(=O)C(C#N)=NOC | 164 to 165
15 | O=c1cc(C(F)(F)F)[nH]c(=O)n1-c1ccc(Cl)cc1F | 189
16 | COc1nc(C)nc(NC(=O)NS(=O)(=O)c2cc(OC(F)F)ccc2OC(F)F)n1 | 113
17 | CC(C)CCOc1c(-c2ccc(S(N)(=O)=O)cc2)cnn(CC(F)(F)F)c1=O | 123 to 124
18 | CNCc1ccc(-c2cc3c4c(ccn4C(=O)CNC3)c2)cc1 | 178 to 180
19 | O=C1C(=O)c2ccccc2C2=C1SCC1(CCN(C(=O)c3ccc(-n4cccn4)cc3)CC1)O2 | 299 to 300
20 | COc1c(Cl)ccc(-c2cc(N)c(Cl)c(C(=O)NOCc3ccc(C)cc3)n2)c1F | 171 to 174
21 | O=C(O)COc1cc2c(c(Cl)c1Cl)C(=O)C(c1ccccc1)C2 (stereo unspecified) | 181 to 185
22 | COc1ccc(NC(=O)c2c[nH]c3c2C(=O)CC(C)(C)C3)c(F)c1 | 203 to 205
23 | CCOC(=O)NC=C(C(=O)OCC)c1ccc(Cl)cc1 | 72
24 | CCOC(=O)COc1cc(C(C)(C)C)c(SC2=C(O)CC(CCc3ccc(O)cc3)(CCc3ccc(O)cc3)OC2=O)cc1C | 162 to 163

Row | Structure (SMILES) | melting point [°C]
25 | ON=C(Cc1ccc(F)cc1)c1ccncc1 | 155
26 | COc1ccc(N2CCN(Cc3n[nH]c4c(F)c(F)ccc34)CC2)cc1 | 195 to 197
27 | CCN(C#N)C(=O)CCCCC(=O)N(C#N)CC | 38.7 to 40.1
28 | Nc1nc(/C(=N/OCC(=O)N2CCCCC2)C(=O)O)cs1 | 177
29 | CCOC(=O)Cc1nnc(-c2ccc(OC)cc2)n1-c1ccc(OC)cc1 | 156
30 | Oc1ccccc1Cc1cccc2[nH]ccc12 | 139
31 | CCCCCCCCCCCCCCOc1ccc(C(=O)NCc2ccccn2)cc1 | 91 to 93
32 | N#Cc1cc(-c2ccc(Cl)c(Cl)c2)[nH]c1Br | > 200
33 | COc1ccc(Cc2cc3ccccc3c(=O)[nH]2)cc1 | 216 to 218
34 | CC(=O)OC[C@H]1NC(=O)[C@H]1NC(=O)C(=NOC(C)(C)C(=O)OCc1ccc([N+](=O)[O-])cc1)c1csc(NC(=O)CCl)n1 (relative stereo) | 120 to 123
35 | Cc1nc(N2CCN(Cc3ccc(OC(F)(F)F)cc3)C2=O)sc1C(=O)NCc1ccccc1 | 197 to 198
36 | NC(=O)c1cccc(NS(=O)(=O)c2ccc([N+](=O)[O-])cc2)c1 | 240 to 244
37 | CC(C)(C)C(NC(=O)c1cccc(-c2ccco2)c1)Nc1c(Nc2cccnc2)c(=O)c1=O (stereo unspecified) | 251 to 252
38 | Cn1ccnc1CCNC(=O)c1ccccc1NS(=O)(=O)c1cccc(C(F)(F)F)c1 | 127 to 129
39 | COC(=O)Cc1ccc(CNC(=O)C2Cc3ccccc3N2S(=O)(=O)c2ccc(-c3ccc(F)cc3OC)cc2)cc1 (stereo unspecified) | 77 to 79
40 | c1ccc(C2CCCC2OCC2CO2)cc1 (stereo unspecified) | 31
41 | [N-]=[N+]=NC[C@H]1OC(O)[C@H](O)[C@@H](O)[C@@H]1O (stereo partly specified) | 128 to 130
42 | COc1cc(N)c(Cl)cc1C(=O)NCC1CCN(CCCCCNC(=O)c2ccc(C)cc2)CC1 | 142 to 146
43 | CN1C(=O)CC[C@]2(C)c3ccc(Sc4ccc5cc([N+](=O)[O-])ccc5n4)cc3CC[C@@H]12 | 195 to 196
44 | CS(=O)(=O)c1ccc(-c2cc(CCCO)nn2C2CCCCC2)cc1 | 138
45 | Cc1ccc(-n2nccc2-c2nn(-c3cccc(C(F)(F)F)c3)ccc2=O)cc1 | 164 to 165
46 | Oc1ccc2c(c1)CCCC(c1ccccc1)=C2c1ccc(OCCCCCSCc2ccco2)cc1 | 171
47 | COc1ccc(-c2nnc3c4ccccc4c(OC4CCNC4=O)nn23)cc1 (stereo unspecified) | 290 to 293
48 | CC(=O)NCCC1CCCc2ccc(O)cc21 (stereo unspecified) | 153 to 155

Row | Structure (SMILES) | melting point [°C]
49 | O=S(=O)(N[C@H](CO)c1ccccc1)c1ccc(Cl)cc1 | 127 to 128
50 | Cc1ccc(Cn2cc(CC(=O)O)c3cc(-c4ccc(OC(F)(F)F)cc4)ccc32)cc1 | 62 to 63
51 | C[C@H]([C@](O)(Cn1cncn1)c1ccc(F)cc1F)S(=O)(=O)N1CCOCC1 | 157 to 158
52 | COc1ccc2[nH]cc(C(C)N3CCCCC3=O)c2c1 (stereo unspecified) | 150
53 | COc1cc(/C=C/C(=O)c2ccc(NS(C)(=O)=O)cc2)cc(-c2cccs2)c1OC | 71 to 75
54 | O=C1C=CC(=O)N1CCN1C(=O)C=CC1=O | 193 to 194
55 | O=C1c2ccc([N+](=O)[O-])cc2COc2cc(Nc3ccc(F)cc3F)ccc21 | 210 to 214
56 | c1ccc(C2=NN=C(N3CCSCC3)SC2)cc1 | 160
57 | COc1ccc(N2CCN(c3ccncc3)CC2)cc1 | 165 to 167
58 | CCCCCCCCCCCCCCCC(=O)OCC(CO)CCn1cnc2c(=O)[nH]c(N)nc21 (stereo unspecified) | 183 to 191
59 | ON=C(CCC(CN1CCN(c2ncccn2)CC1)C(=NO)c1ccccc1)c1ccccc1 (stereo unspecified) | 75 to 78
60 | O=C(O)Cc1ccc(NC(=O)C(COc2cccc(Cl)c2)NS(=O)(=O)c2ccc(F)cc2)cc1 (racemic) | 195 to 197
61 | C[C@@H](O[Si](C)(C)C(C)(C)C)[C@H]1C(=O)N[C@@H]1[C@@H](C)C(=O)C(C)(C)O[Si](C)(C)C | 162
62 | Fc1ccccc1-c1nncc2c(-c3ccccc3)c(OCc3ccccn3)nn12 | 182 to 183
63 | CN(C)CCN(CCC12CC3CC(CC(C3)C1)C2)C(=O)NCCCc1ccncc1 | 104 to 106
64 | CC(C)(CC(O)(Cn1cc(Cl)c(=O)c2sccc21)C(F)(F)F)c1cc(-c2cncnc2)cc2c1OCC2 (stereo unspecified) | 218 to 219
65 | CN(c1ccc(Cl)cc1)S(=O)(=O)c1c[nH]cn1 | 217 to 219
66 | COCOc1cc(COc2nn(Cc3ccccc3)cc2CO)ccc1OCc1nc(-c2ccco2)oc1C | 98 to 99
67 | COC(C)Cn1c(C)nc2cnc3ccccc3c21 (stereo unspecified) | 55 to 57
68 | CCOC(=O)C1CCN(c2ccc([N+](=O)[O-])c(C=C3NC(=O)NC3=O)c2)CC1 | 221 to 223
69 | CC(C)(C)OC(=O)Nc1cc(N2CCC3(CC2)OCCO3)c(C#Cc2ccccc2)cc1[N+](=O)[O-] | 179 to 180
70 | CC(C#CCn1ccnc1)N1CCN(C)C1=O (stereo unspecified) | 89 to 92
71 | Clc1cccc2c(CCN3CCCCC3)c(-c3ccccc3)[nH]c12 | 178 to 179
72 | Nc1nc(-c2ccccc2)c2ncn(C3OC(CO)C(O)C3O)c2n1 (stereo unspecified) | 187 to 190

Row | Structure (SMILES) | melting point [°C]
73 | Fc1cccc(F)c1-c1ncc(-c2ccc(-c3ccc(OC(F)(F)F)cc3)cc2)cn1 | 215 to 216
74 | CCN(CC)C(=O)c1ccc(Nc2nc(OCC3CCCCC3)c3nc[nH]c3n2)cc1 | 138 to 140
75 | O=C(O)c1cc2cc(OC(F)F)ccc2nc1C(=O)O | 226
76 | COc1ccc([N+](=O)[O-])c(N(C)C(=O)OC(C)(C)C)c1 | 122 to 124
77 | COc1ccc2c(c1)OC1(O)c3ccccc3C(=O)C21O (stereo unspecified) | 98 to 100
78 | COC(=O)c1c[nH]c(C(=O)c2ccc(C)cc2)c1 | 155 to 159
79 | CC12CC(=O)C3C(CCC4CC(O)CCC43C)C1CCC2C#N (stereo unspecified) | 190 to 192
80 | CN(C)C1CCC(c2cc3ccccc3c(=O)[nH]2)CC1 (stereo unspecified) | 256 to 258
81 | CC1N=C(c2ccccc2)c2ccccc2NC1=O (stereo unspecified) | 160 to 162
82 | CCCCCCNc1ccncc1 | 68 to 70
83 | CC(=O)OCC(C(OC(C)=O)c1cccc(F)c1)[N+](=O)[O-] (stereo unspecified) | 94
84 | O=C1CCC(N2C(=O)c3ccccc3C2=O)C(=O)N1CO (stereo unspecified) | 165
85 | CC(C)n1nc(-c2nc(C#Cc3cncn3C)c(N)nc2-c2ccccc2)ccc1=O | > 250
86 | Cc1oc(-c2ccccc2)nc1COc1ccc(/C=C/C=C/C#N)cc1 | 120 to 121
87 | Cc1ccc(-c2ccc3c(c2)C=C(C(=O)Nc2ccc(CSC4CCCCC4)cc2)CCO3)cc1 | 161 to 162
88 | CC(C)C(Cl)C(=O)Nc1c(C(=O)CC(=O)Nc2nccs2)cccc1C(F)(F)F (stereo unspecified) | 186
89 | CN1CCC2(C)c3cc(OC(=O)N4CCc5ccccc5C4)ccc3N(C)C12 (stereo unspecified) | 118 to 119
90 | CC(C)(C)c1cccc(S(=O)(=O)n2c(C(O)c3ccc(C(=O)O)s3)cc3cc(C(F)(F)F)ccc32)c1 (stereo unspecified) | 90
91 | CCN(CC)[C@@H]1C(=O)N(C)[C@H]1c1ccccc1 (relative stereo) | 70 to 71
92 | CCC(=O)N(CC)c1cccc(-c2ccc3nnc(C)n3n2)c1 | 145 to 148
93 | CC1(c2ccccc2)C(=O)c2c(cc(OCC(=O)O)c(Cl)c2Cl)C1c1ccccc1 (stereo unspecified) | 203 to 205
94 | CC(=O)NCCCc1ccc(OC2CCc3cc(Cl)ccc32)cc1 (stereo unspecified) | 111 to 112
95 | Cn1nnnc1-c1cnc2ccccn2c1=O | 280 to 282
96 | Cc1cc(C)cc(-c2cc(C(=O)NCCCCCCCc3ccccc3)cc(-c3cc(C)cc(C)c3)c2OCCCC(=O)O)c1 | 64 to 66
